Assays:
[1] = target: T1, MYT1 protein (Homo sapiens (Human), UniProt Q99640); assay: Test for binding to ATP binding site of MYT1 (Kinase Tracer 178 / Eu-Anti-GST antibody TR-FRET); settings: ATP binding site of MYT1, 30 minutes at room temperature
[2] = target: T1, MYT1 protein; assay: MYT1 kinase activity inhibition test (ELISA, phosphorylation of Y15 of CDK1); format: biochemical; settings: phosphorylation level of Y15 of CDK1 protein caused by MYT1 protein, 60 minutes
Description: The MYT1 kinase activity inhibitory capacity of each compound was evaluated by evaluating the phosphorylation level of Y15 of CDK1 protein caused by MYT1 protein, by ELISA. The kit of CycLex Weel Kinase Assay/Inhibitor Screening Kit Ver. 3 (manufactured by MBL, CY-1172V3) was used. Using Kinase Buffer, 10 μL of 5 nM MYT1 protein (manufactured by Carna Biosciences, Inc.) was prepared. In addition, 30 μL of 83.3 μM of ATP was prepared using Kinase Buffer. In addition, 10 μL of each compound was diluted to each concentration using Kinase Buffer. 30 μL of ATP was added to the plate of the kit, and thereafter, 10 μL of each compound was added thereto. Further, 10 μL of the diluted MYT1 protein solution was added thereto, and then the mixture was mixed, which was allowed to stand at room temperature for 60 minutes. The reaction solution was removed from each well, and each well was washed using Wash Buffer. After Wash Buffer was removed, 100 μL of HRP conjugated Anti-phospho-tyrosine antibody was added to each well, which was allowed to stand at room temperature for 60 minutes. Thereafter, the reaction solution was removed from each well, and each well was washed using Wash Buffer. After Wash Buffer was removed, 100 μL of Substrate Reagent was added to each well, which was allowed to stand at room temperature for 8 minutes. Thereafter, 100 μL of Stop Solution (1 N sulfuric acid) was added to each well according to the manual. Absorbances at 450 nm and 590 nm were measured using Envision (manufactured by PerkinElmer). The phosphorylation level of CDK1 protein was evaluated for each well by subtracting the absorbance at 590 nm from the absorbance at 450 nm. The inhibition rate of each compound added at each concentration was calculated by setting the signal when the compound was not added as 100% and the signal when MYT1 protein was not added as 0%, and the calculation results of IC50 were shown in Table 4.

[3] = system: LU65; assay: Cytotoxicity test with pemetrexed upon addition of each example compound (CellTiter-Glo); format: cell-based, human; settings: combination with pemetrexed, LU65 cells, 7 days; maximum value, at the MYT1 inhibitor and pemetrexed concentrations
Description: LU65 (received from human tissue bank (JCRB Cell Bank)) was used in the evaluation of the present invention. LU65 is a lung cancer cell line having a truncated deletion mutation of S82* in RB1 gene (see Nature. 2019 May; 569(7757): 503-508. (Non Patent Literature 22)), in which the function of RB1 is decreased. The cell culture was carried out using RPMI-1640 (manufactured by SIGMA) containing 10% FBS (manufactured by SIGMA).
Each pemetrexed (manufactured by Tokyo Kasei Kogyo Co., Ltd.) and each example compound of each concentration were diluted using a DMSO solution, and 0.04 μL of each of series of dilution and DMSO was added to each well of cell culture plate using Echo 555 Liquid Handler (manufactured by Beckman Coulter Inc.). 1000 LU65 cells ([…]) were added to each well, which was cultured at 37° C. in a 5% CO2 incubator for 7 days. Intracellular ATP level which is a cell survival marker was measured and used in the monitoring of cell number. After culturing, 20 μL of CellTiter-Glo (registered trademark) 2.0 (manufactured by Promega) was added to each well, and the emission intensity was measured using Multimode Plate Reader En Vision (registered trademark) Xcite (manufactured by PerkinElmer). The cell survival rate under each condition was calculated by setting the value obtained by subtracting the luminescence of the cell unseeded well from the luminescence of the DMSO-added well as 100%, and calculating the proportion of a value obtained by subtracting the luminescence of the cell unseeded well from the luminescence detected at each well.
In addition, the cytotoxic activity under each condition was calculated by subtracting the survival rate in a combination of pemetrexed of each treatment concentration and each example compound of each treatment concentration, from 100%.

T1 sequence (Q99640 whole entry): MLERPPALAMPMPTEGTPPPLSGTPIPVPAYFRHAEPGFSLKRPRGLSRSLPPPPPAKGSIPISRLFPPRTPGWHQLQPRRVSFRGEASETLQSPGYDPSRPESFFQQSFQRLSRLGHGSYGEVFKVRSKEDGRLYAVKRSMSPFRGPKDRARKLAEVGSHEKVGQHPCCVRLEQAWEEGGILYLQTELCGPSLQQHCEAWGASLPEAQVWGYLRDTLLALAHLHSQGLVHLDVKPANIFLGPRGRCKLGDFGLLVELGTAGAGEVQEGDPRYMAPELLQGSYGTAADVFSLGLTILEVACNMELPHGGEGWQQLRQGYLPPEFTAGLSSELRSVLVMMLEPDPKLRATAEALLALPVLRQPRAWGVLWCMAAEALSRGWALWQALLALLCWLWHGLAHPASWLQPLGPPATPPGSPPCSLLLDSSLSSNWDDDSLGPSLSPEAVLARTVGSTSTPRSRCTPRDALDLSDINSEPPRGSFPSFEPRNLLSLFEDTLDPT

COc1cc2c(-c3cc(F)c(F)c4[nH]ncc34)c(N)c(=O)[nH]c2c2cccnc12 [Compound C65, 3-Amino-4-(6,7-difluoro-1H-indazol-4-yl)-6-methoxy-1H-1,7-phenanthrolin-2-one]
IC50 [1]: 3.2 nM
IC50 [2]: 0.083 nM
Bliss Score (Max) [3]: 53%
HSA Score (MAX) [3]: 58%

CCOc1cc2c(-c3cc(F)c(F)c4[nH]ncc34)c(N)c(=O)[nH]c2c2cccnc12 [Compound C67, 3-Amino-4-(6,7-difluoro-1H-indazol-4-yl)-6-ethoxy-1H-1,7-phenanthrolin-2-one]
IC50 [1]: 2.4 nM
IC50 [2]: 0.1 nM
Bliss Score (Max) [3]: 77%
HSA Score (MAX) [3]: 79%

CC(C)Oc1cc2c(-c3cc(F)c(F)c4[nH]ncc34)c(N)c(=O)[nH]c2c2cccnc12 [Compound C69, 3-Amino-4-(6,7-difluoro-1H-indazol-4-yl)-6-propan-2-yloxy-1H-1,7-phenanthrolin-2-one]
IC50 [1]: 2 nM
IC50 [2]: 0.1 nM
Bliss Score (Max) [3]: 66%
HSA Score (MAX) [3]: 69%

COc1cc2c(-c3cc(F)c(Cl)c4[nH]ncc34)c(N)c(=O)[nH]c2c2cccnc12 [Compound C76, 3-Amino-4-(7-chloro-6-fluoro-1H-indazol-4-yl)-6-methoxy-1H-1,7-phenanthrolin-2-one]
IC50 [1]: 1.5 nM
IC50 [2]: 0.092 nM
Bliss Score (Max) [3]: 68%
HSA Score (MAX) [3]: 67%

Nc1c(-c2ccc(F)c3[nH]ncc23)c2cc(Cl)c3ncccc3c2[nH]c1=O [Compound C78, 3-Amino-6-chloro-4-(7-fluoro-1H-indazol-4-yl)-1H-1,7-phenanthrolin-2-one]
IC50 [1]: 3.1 nM
IC50 [2]: < 0.17 nM
Bliss Score (Max) [3]: 53%
HSA Score (MAX) [3]: 66%

Nc1c(-c2ccc(F)c3[nH]ncc23)c2ccc3ncccc3c2[nH]c1=O [Compound C83, 3-Amino-4-(7-fluoro-1H-indazol-4-yl)-1H-1,7-phenanthrolin-2-one]
IC50 [1]: 2.4 nM
IC50 [2]: 0.2 nM
Bliss Score (Max) [3]: 54%
HSA Score (MAX) [3]: 66%

Nc1c(-c2ccc(F)c3[nH]ncc23)c2cc(C3CC3)c3ncccc3c2[nH]c1=O [Compound C84, 3-amino-6-cyclopropyl-4-(7-fluoro-1H-indazol-4-yl)-1H-1,7-phenanthrolin-2-one]
IC50 [1]: 2.3 nM
IC50 [2]: 0.25 nM
Bliss Score (Max) [3]: 68%
HSA Score (MAX) [3]: 70%

Cc1cc2c(-c3ccc(F)c4[nH]ncc34)c(N)c(=O)[nH]c2c2cccnc12 [Compound C85, 3-amino-4-(7-fluoro-1H-indazol-4-yl)-6-methyl-1H-1,7-phenanthrolin-2-one]
IC50 [1]: 2.5 nM
IC50 [2]: 0.19 nM
Bliss Score (Max) [3]: 59%
HSA Score (MAX) [3]: 58%

CCc1cc2c(-c3ccc(F)c4[nH]ncc34)c(N)c(=O)[nH]c2c2cccnc12 [Compound C86, 3-Amino-6-ethyl-4-(7-fluoro-1H-indazol-4-yl)-1H-1,7-phenanthrolin-2-one]
IC50 [1]: 4.6 nM
IC50 [2]: < 0.17 nM
Bliss Score (Max) [3]: 67%
HSA Score (MAX) [3]: 71%

Cn1cc(-c2cc3c(-c4ccc(F)c5[nH]ncc45)c(N)c(=O)[nH]c3c3cccnc23)cn1 [Compound C88, 3-Amino-4-(7-fluoro-1H-indazol-4-yl)-6-(1-methylpyrazol-4-yl)-1H-1,7-phenanthrolin-2-one]
IC50 [1]: 4.4 nM
IC50 [2]: < 0.17 nM
Bliss Score (Max) [3]: 53%
HSA Score (MAX) [3]: 61%

CC#Cc1cc2c(-c3ccc(F)c4[nH]ncc34)c(N)c(=O)[nH]c2c2cccnc12 [Compound C90, 3-Amino-4-(7-fluoro-1H-indazol-4-yl)-6-prop-1-inyl-1H-1,7-phenanthrolin-2-one]
IC50 [1]: 14 nM
IC50 [2]: 0.42 nM
Bliss Score (Max) [3]: 50%
HSA Score (MAX) [3]: 60%

Nc1c(-c2ccc(F)c3[nH]ncc23)c2cc(C3CCC3)c3ncccc3c2[nH]c1=O [Compound C91, 3-Amino-6-cyclobutyl-4-(7-fluoro-1H-indazol-4-yl)-1H-1,7-phenanthrolin-2-one]
IC50 [1]: 10 nM
IC50 [2]: 1.1 nM
Bliss Score (Max) [3]: 59%
HSA Score (MAX) [3]: 61%

Nc1c(-c2ccc(F)c3[nH]ncc23)c2cc(C3CCCC3)c3ncccc3c2[nH]c1=O [Compound C92, 3-Amino-6-cyclopentyl-4-(7-fluoro-1H-indazol-4-yl)-1H-1,7-phenanthrolin-2-one]
IC50 [1]: 19 nM
IC50 [2]: 1.7 nM
Bliss Score (Max) [3]: 56%
HSA Score (MAX) [3]: 68%

Nc1c(-c2ccc(F)c3[nH]ncc23)c2cc(C3CCOCC3)c3ncccc3c2[nH]c1=O [Compound C98, 3-Amino-4-(7-fluoro-1H-indazol-4-yl)-6-(oxan-4-yl)-1H-1,7-phenanthrolin-2-one]
IC50 [1]: 2.8 nM
IC50 [2]: < 4.6 nM
Bliss Score (Max) [3]: 46%
HSA Score (MAX) [3]: 53%

Nc1c(-c2ccc(F)c3[nH]ncc23)c2cc(/C=C/CCO)c3ncccc3c2[nH]c1=O [Compound C100, 3-Amino-4-(7-fluoro-1H-indazol-4-yl)-6-[(E)-4-hydroxybut-1-enyl]-1H-1,7-phenanthrolin-2-one]
IC50 [1]: 1.5 nM
IC50 [2]: 5.5 nM
Bliss Score (Max) [3]: 46%
HSA Score (MAX) [3]: 50%

Nc1c(-c2ccc(F)c3[nH]ncc23)c2cc(C3CCC4(CC3)OCCO4)c3ncccc3c2[nH]c1=O.O=C(O)C(F)(F)F [Compound C101, 3-Amino-6-(1,4-dioxaspiro[4.5]decan-8-yl)-4-(7-fluoro-1H-indazol-4-yl)-1H-1,7-phenanthrolin-2-one 2,2,2-trifluoroacetate]
IC50 [1]: 6.1 nM
IC50 [2]: 7.1 nM
Bliss Score (Max) [3]: 46%
HSA Score (MAX) [3]: 64%

CC(C)(O)C#Cc1cc2c(-c3ccc(F)c4[nH]ncc34)c(N)c(=O)[nH]c2c2cccnc12 [Compound C102, 3-Amino-4-(7-fluoro-1H-indazol-4-yl)-6-(3-hydroxy-3-methylbut-1-inyl)-1H-1,7-phenanthrolin-2-one]
IC50 [1]: 3.8 nM
IC50 [2]: < 4.6 nM
Bliss Score (Max) [3]: 36%
HSA Score (MAX) [3]: 49%

Nc1c(-c2ccc(F)c3[nH]ncc23)c2cc(C3CCN(C4CCC4)CC3)c3ncccc3c2[nH]c1=O [Compound C134, 3-Amino-6-(1-cyclobutylpiperidin-4-yl)-4-(7-fluoro-1H-indazol-4-yl)-1H-1,7-phenanthrolin-2-one]
IC50 [1]: 3.6 nM
IC50 [2]: 7.6 nM
Bliss Score (Max) [3]: 49%
HSA Score (MAX) [3]: 60%

Nc1c(-c2ccc(F)c3[nH]ncc23)c2cc(C3CCN(C4COC4)CC3)c3ncccc3c2[nH]c1=O [Compound C135, 3-Amino-4-(7-fluoro-1H-indazol-4-yl)-6-[1-(oxetan-3-yl)piperidin-4-yl]-1H-1,7-phenanthrolin-2-one]
IC50 [1]: 2.3 nM
IC50 [2]: < 4.6 nM
Bliss Score (Max) [3]: 48%
HSA Score (MAX) [3]: 58%

CC(C)N1CCC(c2cc3c(-c4ccc(F)c5[nH]ncc45)c(N)c(=O)[nH]c3c3cccnc23)CC1.O=CO [Compound C136, 3-Amino-4-(7-fluoro-1H-indazol-4-yl)-6-(1-propan-2-ylpiperidin-4-yl)-1H-1,7-phenanthrolin-2-one; formate]
IC50 [1]: 3.4 nM
IC50 [2]: 8.3 nM
Bliss Score (Max) [3]: 45%
HSA Score (MAX) [3]: 57%

Source: patent US20260062412A1, “NITROGEN-CONTAINING HETEROCYCLIC COMPOUND HAVING MYT1 INHIBITORY ACTIVITY” (CHUGAI SEIYAKU KABUSHIKI KAISHA, priority 2023, published 2026)
